Experiment [1] relates to Zika virus. Briefly: EC50 is reported via analysis of immunofluorescence staining. The assay has been performed by Icahn School of Medicine at Mount Sinai. The class given is functional, organism-based, Chlorocebus sabaeus, VeroE6/TMPRSS2.
For experiment [2], the system named is dengue virus type 2. Put plainly: Functional immunofluorescence assay to measure dose dependent changes in antiviral-drug inhibitory efficacy against Dengue virus type 2 Thailand/16681/84 in Vero E6/TMPRSS2 cells (cotreated with P-gp inhibitor, Elacridar). Cells are treated with antiviral candidates that are serially diluted, following infection, cells are fixed. EC50 is reported via analysis of immunofluorescence staining. The assay has been performed by Icahn School of Medicine at Mount Sinai. The experiment is classed as organism-based, Chlorocebus sabaeus, VeroE6/TMPRSS2. The conditions noted are these: for EC90: P-gp concentration 2 uM, P-gp inhibitor Elacidar.

The subject of experiment [3] is dengue virus type 2. Put plainly: Functional assay to measure dose dependent changes in antiviral-drug inhibitory efficacy against Dengue virus type 2 New Guinea C in Vero E6 miRFP670 cells (cotreated with P-gp inhibitor, CP100356). Cells are treated with antiviral candidates that are serially diluted, following infection, cells are fixed. EC50 is reported via analysis of fluorescence intensity using high-content imager. The …. The settings on record: for EC90: P-gp concentration 500 nM, P-gp inhibitor CP100356. The experiment is classed as organism-based, Chlorocebus sabaeus, Vero C1008.

Experiment [4] has as its system Zika virus. Briefly: Functional CPE-based assay to measure dose dependent changes in antiviral-drug inhibitory efficacy against Zika virus MR766 in Vero E6 miRFP670 cells (cotreated with P-gp inhibitor, CP100356). Cells are treated with antiviral candidates that are serially diluted. EC50 is reported via analysis of MTS assay as a readout of CPE. The assay has been performed by KU Leuven. The class given is organism-based, Chlorocebus sabaeus, Vero C1008. The settings on record: for EC90: Baseline response 0 %, Maximum response 100 %, P-gp concentration 500 nM, P-gp inhibitor CP100356. For orientation: Formazan colour is commonly taken as a measure of viable cells.

Several values for one entry are separate records, joined by “and”; a condition that tells them apart may be missing. Equal values may be shown once.

Usually EC50 stands for the concentration giving half of the maximal effect. What is called EC90 is the concentration needed for an effect of 90%. As to `CCOC(=O)[C@H]1[C@H](c2cc(Cl)cc(NC(=O)OCc3ccccc3)c2)[C@H]1c1cccc(-c2nnn[nH]2)c1`, the EC50 in the experiment on Zika virus [1] (Zika virus, VeroE6/TMPRSS2) was found to be 39.5 µM; with dengue virus type 2 [2] (Dengue virus, VeroE6/TMPRSS2), 10.1 µM. Moreover, the EC90 in the experiment on Zika virus [1] (Zika virus, VeroE6/TMPRSS2, Baseline response 0 %, Hill slope -17.688, Maximum measured 145.242 %, Maximum response 100 %, Minimum measured 1.538 %, P-gp concentration 2 uM, R squared 0.641, P-gp inhibitor Elacidar) was 44.8 µM; in the experiment on dengue virus type 2 [2] (Dengue virus, VeroE6/TMPRSS2, Baseline response 0 %, Hill slope -0.678, Maximum measured 159.228 %, Maximum response 100 %, Minimum measured 7.966 %, R squared 0.513) it was more than 50 µM.
As for `CC[C@H](Cc1nnn[nH]1)c1ccc(NC(=O)c2cc(Cl)cc(-n3cccc3)c2)cc1`, the EC50 came to 46.8 µM with Zika virus [1] (Zika virus, VeroE6/TMPRSS2) and 42.5 µM in the experiment with dengue virus type 2 [2] (Dengue virus, VeroE6/TMPRSS2). Further, the EC90 in the experiment on Zika virus [1] (Zika virus, VeroE6/TMPRSS2, Baseline response 0 %, Hill slope -17.276, Maximum measured 183.537 %, Maximum response 154.104 %, Minimum measured 37.545 %, P-gp concentration 2 uM, R squared 0.817, P-gp inhibitor Elacidar) was more than 50 µM; in the experiment on dengue virus type 2 [2] (Dengue virus, VeroE6/TMPRSS2, Baseline response 0 %, Hill slope -23.366, Maximum measured 115.315 %, Maximum response 100 %, Minimum measured 2.218 %, R squared 0.505), 46.7 µM.
As to `NCc1cccc(NC(=O)C[C@H](NC(=O)OCc2ccccc2)c2ccc(OCc3ccccc3)c(Br)c2)c1`, the EC50 is 1.7 µM in the experiment with Zika virus [1] (Zika virus, VeroE6/TMPRSS2) and more than 16.7 µM in the experiment on dengue virus type 2 [2] (Dengue virus, VeroE6/TMPRSS2). Also, the EC90 with Zika virus [1] (Zika virus, VeroE6/TMPRSS2, Baseline response 0 %, Hill slope -0.518, Maximum measured 120.113 %, Maximum response 100 %, Minimum measured 9.459 %, P-gp concentration 2 uM, R squared 0.639, P-gp inhibitor Elacidar) is more than 50 µM; with dengue virus type 2 [2] (Dengue virus, VeroE6/TMPRSS2, Baseline response 0 %, Hill slope 0.065, Maximum measured 60.527 %, Maximum response 100 %, Minimum measured 30.522 %, R squared 0.087) it was more than 16.7 µM.
Turning to `CCc1cc(Cl)cc(C(=O)Nc2ccc3c(c2)CNC3)c1`, the EC50 in the experiment on dengue virus type 2 [2] (Dengue virus, VeroE6/TMPRSS2) was more than 16.7 µM. Further, the EC90 in the experiment on dengue virus type 2 [2] (Dengue virus, VeroE6/TMPRSS2, Baseline response 0 %, Hill slope -0.226, Maximum measured 109.554 %, Maximum response 100 %, Minimum measured 84.826 %, R squared 0.106) is more than 16.7 µM.
With `CCOc1cccc(-c2ccc(S(=O)(=O)Nc3cc4c(cc3C(=O)O)CCC4)cc2)c1`, the EC50 with Zika virus [1] (Zika virus, VeroE6/TMPRSS2) is more than 50 µM; with dengue virus type 2 [2] (Dengue virus, VeroE6/TMPRSS2), more than 16.7 µM. The EC90 in the experiment on Zika virus [1] (Zika virus, VeroE6/TMPRSS2, Baseline response 0 %, Hill slope -16.078, Maximum measured 130.08 %, Maximum response 100 %, Minimum measured 52.734 %, P-gp concentration 2 uM, R squared 0.304, P-gp inhibitor Elacidar) was more than 50 µM; in the experiment on dengue virus type 2 [2] (Dengue virus, VeroE6/TMPRSS2, Baseline response 0 %, Hill slope -0.37, Maximum measured 131.408 %, Maximum response 100 %, Minimum measured 56.89 %, R squared 0.244), more than 16.7 µM.
In the case of `NCc1cccc(NC(=O)c2cc(Cl)cc(CN)c2)c1`, the EC90 with Zika virus [1] (Zika virus, VeroE6/TMPRSS2, Maximum measured 123.027 %, Minimum measured 86.3 %, P-gp concentration 2 uM, P-gp inhibitor Elacidar) was more than 50 µM; in the experiment with Zika virus [1] (Zika virus, VeroE6/TMPRSS2, Baseline response 0 %, Hill slope -0.468, Maximum measured 130.938 %, Maximum response 100 %, Minimum measured 51.052 %, P-gp concentration 2 uM, R squared 0.396, P-gp inhibitor Elacidar), more than 3.33 µM; in the experiment on dengue virus type 2 [2] (Baseline response 0 %, Hill slope -0.259, Maximum measured 118.193 %, Maximum response 100 %, Minimum measured 55.278 %, R squared 0.275), more than 10 µM; in the experiment with dengue virus type 2 [2] (Baseline response 0 %, Hill slope -0.379, Maximum measured 148.524 %, Maximum response 100 %, Minimum measured 29.621 %, R squared 0.276), more than 50 µM. The EC50 was more than 50 µM with Zika virus [1] (veroe6/tmprss2); > 10 µM and 48.2 µM in the experiment on dengue virus type 2 [2] (veroe6/tmprss2).
`c1ccc2c(CN3CCC(c4cscn4)CC3)c[nH]c2c1`: the EC90 is more than 10 µM in the experiment with Zika virus [1] (Zika virus, VeroE6/TMPRSS2, Maximum measured 113.51 %, Minimum measured 55.055 %, P-gp concentration 2 uM, P-gp inhibitor Elacidar); more than 50 µM in the experiment on Zika virus [1] (Zika virus, VeroE6/TMPRSS2, Maximum measured 115.408 %, Minimum measured 68.286 %, P-gp concentration 2 uM, P-gp inhibitor Elacidar); more than 10 µM in the experiment on dengue virus type 2 [2] (Baseline response 0 %, Hill slope -0.247, Maximum measured 100.251 %, Maximum response 100 %, Minimum measured 62.836 %, R squared 0.15); more than 50 µM in the experiment with dengue virus type 2 [2] (Baseline response 0 %, Hill slope -0.248, Maximum measured 160.986 %, Maximum response 100 %, Minimum measured 66.91 %, R squared 0.115). The EC50 with Zika virus [1] (veroe6/tmprss2) and in the experiment with dengue virus type 2 [2] (veroe6/tmprss2) was more than 50 µM throughout.
`O=C(Nc1cc(Cl)cc(C(=O)Nc2cc(Br)cc(-c3nnn[nH]3)c2)c1)OCc1ccccc1`: the EC50 with Zika virus [1] (Zika virus, VeroE6/TMPRSS2) worked out at 41.4 µM; in the experiment with dengue virus type 2 [2] (Dengue virus, VeroE6/TMPRSS2) it was 11.4 µM. For the same compound, the EC90 is 44.1 µM with Zika virus [1] (Zika virus, VeroE6/TMPRSS2, Baseline response 0 %, Hill slope -35.305, Maximum measured 180.813 %, Maximum response 100 %, Minimum measured 13.985 %, P-gp concentration 2 uM, R squared 0.137, P-gp inhibitor Elacidar) and more than 16.7 µM with dengue virus type 2 [2] (Dengue virus, VeroE6/TMPRSS2, Baseline response 0 %, Hill slope -3.68, Maximum measured 234.045 %, Maximum response 186.52 %, Minimum measured 36.837 %, R squared 0.67).
Consider `NCc1cccc(NC(=O)[C@H]2[C@H]3CCCCC[C@H]3[C@H]2NC(=O)OCc2ccccc2)c1`, for which the EC50 in the experiment on Zika virus [1] (Zika virus, VeroE6/TMPRSS2) is 1.43 µM; in the experiment on dengue virus type 2 [2] (Dengue virus, VeroE6/TMPRSS2), more than 5.56 µM. The EC90 in the experiment on Zika virus [1] (Zika virus, VeroE6/TMPRSS2) was 9.76 µM; with dengue virus type 2 [2] (Dengue virus, VeroE6/TMPRSS2, Baseline response 0 %, Hill slope -0.21, Maximum measured 66.083 %, Maximum response 100 %, Minimum measured 25.848 %, R squared 0.326), more than 5.56 µM.
For `O=C(Nc1cc(Cl)cc(C(=O)Nc2cccc([C@H]3CCNC3)c2)c1)OCc1ccccc1`, the EC50 is 42.7 µM with Zika virus [1] (Zika virus, VeroE6/TMPRSS2) and more than 5.56 µM with dengue virus type 2 [2] (Dengue virus, VeroE6/TMPRSS2). For the same compound, the concentration for an effect of 90% (EC90) is 47.3 µM with Zika virus [1] (Zika virus, VeroE6/TMPRSS2, Baseline response 0 %, Hill slope -21.619, Maximum measured 167.541 %, Maximum response 100 %, Minimum measured 3.263 %, P-gp concentration 2 uM, R squared 0.234, P-gp inhibitor Elacidar) and more than 5.56 µM in the experiment on dengue virus type 2 [2] (Dengue virus, VeroE6/TMPRSS2, Maximum measured 260.488 %, Minimum measured 106.051 %).
As for `COCCNC(=O)[C@H](Nc1ccc2c(c1)CNC2)c1cc(Cl)cc(C2CC2)c1`, the EC90 is more than 5.56 µM with Zika virus [1] (Baseline response 0 %, Hill slope -0.71, Maximum measured 110.043 %, Maximum response 100 %, Minimum measured 53.247 %, P-gp concentration 2 uM, R squared 0.662, P-gp inhibitor Elacidar); more than 5.56 µM in the experiment on Zika virus [1] (Zika virus, VeroE6/TMPRSS2, Baseline response 0 %, Hill slope -0.244, Maximum measured 65.627 %, Maximum response 50 %, Minimum measured 21.531 %, P-gp concentration 2 uM, R squared 0.09, P-gp inhibitor Elacidar); more than 50 µM in the experiment with dengue virus type 2 [3] (Dengue virus, Vero C1008, Maximum measured 154.141 %, Minimum measured 87.25 %); more than 50 µM in the experiment on dengue virus type 2 [3] (Dengue virus, Vero C1008, Baseline response 0 %, Hill slope -1.76, Maximum measured 106.994 %, Maximum response 100 %, Minimum measured 48.696 %, R squared 0.783); 6.86 µM with Zika virus [4] (EC90 CI (lower) 3.438 uM, EC90 CI (upper) 13.705 uM, Hill slope 5.727, Maximum measured 103.141 %, Minimum measured 2.231 %, R squared 0.527); more than 50 µM in the experiment with Zika virus [4] (Hill slope 2.264, Maximum measured 83.807 %, Minimum measured -2.671 %, R squared 0.978). The EC50 in the experiment with Zika virus [1] (Zika virus, VeroE6/TMPRSS2) was more than 5.56 µM; with dengue virus type 2 [3] (Dengue virus, Vero C1008), 40.2 µM; in the experiment with dengue virus type 2 [3] (vero c1008), more than 50 µM; in the experiment with Zika virus [4] (vero c1008), 26 µM and 4.68 µM.
As for `N#C[C@H](Nc1ccc2c(c1)CNC2)c1cc(Cl)cc(C2CC2)c1`, the EC50 is 45.6 µM in the experiment on dengue virus type 2 [3] (Dengue virus, Vero C1008); 19.3 µM in the experiment on Zika virus [4] (Zika virus, Vero C1008); more than 16.7 µM in the experiment with dengue virus type 2 [2] (Dengue virus, VeroE6/TMPRSS2). In addition, the EC90 is more than 50 µM in the experiment on dengue virus type 2 [3] (Dengue virus, Vero C1008, Baseline response 0 %, Hill slope -4.312, Maximum measured 125.602 %, Maximum response 100 %, Minimum measured 40.399 %, R squared 0.668); more than 25 µM with Zika virus [4] (Zika virus, Vero C1008, Hill slope 4.333, Maximum measured 75.439 %, Minimum measured -2.703 %, R squared 0.979); more than 16.7 µM with dengue virus type 2 [2] (Dengue virus, VeroE6/TMPRSS2, Maximum measured 136.887 %, Minimum measured 85.602 %).
With `Nc1cc(Cl)cc(C(=O)Nc2ccc3c(c2)CNC3)c1N`, the EC50 was more than 50 µM in the experiment with dengue virus type 2 [3] (Dengue virus, Vero C1008); more than 50 µM in the experiment with Zika virus [4] (Zika virus, Vero C1008); 41.9 µM in the experiment with dengue virus type 2 [2] (Dengue virus, VeroE6/TMPRSS2). For the same compound, the EC90 in the experiment with dengue virus type 2 [3] (Dengue virus, Vero C1008, Baseline response 0 %, Hill slope 0.309, Maximum measured 103.631 %, Maximum response 100 %, Minimum measured 71.641 %, R squared 0.1) was more than 50 µM; with Zika virus [4] (Zika virus, Vero C1008, Hill slope 0.699, Maximum measured 36.917 %, Minimum measured 3.264 %, R squared 0.811) it was more than 50 µM; in the experiment with dengue virus type 2 [2] (Dengue virus, VeroE6/TMPRSS2, Baseline response 0 %, Hill slope -3.096, Maximum measured 144.717 %, Maximum response 100 %, Minimum measured 36.673 %, R squared 0.131), more than 50 µM.
